Reference: US20240182859A1, “MEDIUM COMPOSITION FOR CULTURING MUSCLE STEM CELL COMPRISING CURCUMIN LONGA, GLYSIN, OR INSULIN FOR PROLIFERATION OF MUSCLE STEM CELL” (HYUPSUNG UNIVERSITY INDUSTRY-ACADEMIC COOPERATION FOUNDATION, priority 2021, published 2024)

What was measured:
[1] = system: Oct4; assay: qPCR expression level of Oct4 (muscle stem cell marker) in cultured muscle stem cells; format: cell-based, bovine
Method: (§1) In detail, first, bovine rump meat was treated with trypsin, and then primary-cultured to obtain bovine muscle stem cells. Afterwards, a culture medium supplemented with curcumin and bFGF was prepared by varying the concentration of curcumin (0.1 μm, 1 μm, 5 μm, 8 μm, and 10 8 μm, respectively) in a DMEM basal medium supplemented with 5% FBS and 8 ng/ml of bFGF, and the muscle stem cells were cultured through passage culture twice.
(§2) In detail, first, bovine rump meat was treated with trypsin, and then primary-cultured to obtain bovine muscle stem cells. Afterwards, a culture medium supplemented with curcumin was prepared by varying the concentration of curcumin (0.1 μm, 1 μm, 5 μm, 8 μm, and 10 μm, respectively) in a DMEM basal medium supplemented with 5% FBS, and the muscle stem cells were cultured through passage culture twice.
(§3) In detail, first, bovine rump meat was treated with trypsin, and then primary-cultured to obtain bovine muscle stem cells.
(§4) First, bovine rump meat was treated with trypsin, and then primary-cultured to obtain bovine muscle stem cells.
(§5) In detail, first, bovine rump meat was treated with trypsin, and then primary-cultured to obtain bovine muscle stem cells. Afterwards, a culture medium supplemented with insulin and bFGF was prepared by varying the concentration of insulin (0.1 μm, 1 μm, 5 μm, 8 μm, and 10 8 μm, respectively) in a DMEM basal medium supplemented with 5% FBS and 8 ng/ml of bFGF, and the muscle stem cells were cultured through passage culture twice.
(§6) In detail, first, bovine rump meat was treated with trypsin, and then primary-cultured to obtain bovine muscle stem cells. Afterwards, a culture medium supplemented with insulin was prepared by varying the concentration of insulin (0.1 μm, 1 μm, 5 μm, 8 μm, and 10 μm, respectively) in a DMEM basal medium supplemented with 5% FBS, and the muscle stem cells were cultured through passage culture twice.

[2] = system: Nanog; assay: qPCR expression level of Nanog (muscle stem cell marker) in cultured muscle stem cells; format: cell-based, bovine
Method: as §1, §2, §3, §4, §5, §6

[3] = system: Pax7; assay: qPCR expression level of Pax7 (myoblast marker) in cultured muscle stem cells; format: cell-based, bovine; settings: for expression of Pax7, concentration dependence: concentration series
Method: as §1, §2, §3, §4, §5, §6

[4] = system: bovine muscle stem cells; assay: Proliferation of bovine muscle stem cells in supplemented DMEM culture medium; format: cell-based
Method: as §3
In detail, first, bovine rump meat was treated with trypsin, and then primary-cultured to obtain bovine muscle stem cells. […] As a control, a DMEM basal medium supplemented with 5% FBS was used.
In detail, first, bovine rump meat was treated with trypsin, and then primary-cultured to obtain bovine muscle stem cells. Afterwards, the muscle stem cells were cultured in the DMEM basal medium supplemented with 5% FBS and 10 μM of insulin, and the proliferation of the muscle stem cells was measured. As a control, a DMEM basal medium supplemented with 5% FBS was used.

[5] = medium with 5% FBS + 8 ng/ml bFGF, overall statement, passage culture twice
[6] = bFGF-free medium with 5% FBS, overall statement
[7] = medium with 5% FBS + 8 ng/ml bFGF
[8] = glycine 1 mM to 50 mM, bFGF-free
[9] = insulin 10 μm or more, with 8 ng/ml bFGF

Compound: COc1cc(/C=C/C(=O)CC(=O)/C=C/c2ccc(O)c(OC)c2)ccc1O [curcumin]
- expression of Oct4 vs curcumin-free DMSO control ([1]; curcumin 0.1 μm to 5 μm, with 8 ng/ml bFGF): increased by about twice
- expression of Oct4 vs curcumin-free DMSO control ([1]; curcumin 1 μm to 5 μm, bFGF-free): increased by at least about twice
- expression of Oct4 ([1]; curcumin 8 μm or more, with 8 ng/ml bFGF): significantly decreased
- expression of Oct4 ([1]; curcumin 8 μm, bFGF-free): significantly decreased
- expression of Oct4 [1, 5]: increased
- expression of Nanog [2, 6]: maintained
- expression of Nanog vs curcumin-free DMSO control ([2]; curcumin 0.1 μm and 1 μm, with 8 ng/ml bFGF): increased by about twice
- expression of Nanog ([2]; curcumin 5 μm or more, with 8 ng/ml bFGF): significantly decreased
- expression of Nanog ([2]; curcumin 8 μm, bFGF-free): significantly decreased
- expression of Nanog [2, 5]: increased
- expression of Pax7, concentration dependence ([3]; bFGF-free medium with 5% FBS): increased in proportion to the concentration of curcumin
- expression of Pax7 ([3]; curcumin 8 μm, bFGF-free): significantly increased
- expression of Pax7, concentration dependence [3, 7]: increased in proportion to the concentration of curcumin
- cell proliferation rate increase compared to basal medium ([4]; 8 μm curcumin, DMEM + 5% FBS + 8 ng/ml bFGF, cultured for 29 days): ≥ 1.5 times
- cell proliferation rate increase compared to basal medium ([4]; 8 μm curcumin, DMEM + 5% FBS, bFGF-free, cultured for 41 days): ≥ 1.5 times

Compound: NCC(=O)O [glycine]
- expression of Oct4 vs glycine-free DMSO control [1, 8]: increased by about twice
- expression of Oct4 increase vs glycine-free DMSO control ([1]; glycine 1 mM to 50 mM, with 8 ng/ml bFGF): about 2.3 times
- expression of Oct4 ([1]; glycine 100 mM or more, with 8 ng/ml bFGF): significantly decreased
- expression of Oct4 ([1]; glycine 100 mM, bFGF-free): significantly decreased
- expression of Oct4 [1, 5]: increased
- expression of Nanog vs glycine-free DMSO control [2, 8]: increased by about twice
- expression of Nanog vs glycine-free DMSO control ([2]; glycine 10 mM to 100 mM, with 8 ng/ml bFGF): increased by about twice
- expression of Nanog ([2]; glycine 100 mM, bFGF-free): significantly decreased
- expression of Nanog ([2]; glycine 150 mM or more, with 8 ng/ml bFGF): significantly decreased
- expression of Nanog [2, 5]: increased
- expression of Pax7 increase vs insulin-free DMSO control ([3]; 10 µM, bFGF-free insulin culture medium): ≥ 6 times
- expression of Pax7, concentration dependence ([3]; bFGF-free medium with 5% FBS): increased in proportion to the concentration of glycine
- expression of Pax7 increase vs glycine-free DMSO control ([3]; glycine 100 mM or more, bFGF-free): ≥ 3 times
- expression of Pax7, concentration dependence [3, 7]: increased in proportion to the concentration of glycine
- cell proliferation rate increase compared to basal medium ([4]; 100 mM glycine, DMEM + 5% FBS + 8 ng/ml bFGF, cultured for 29 days): ≥ 1.5 times
- cell proliferation rate increase compared to basal medium ([4]; 100 mM glycine, DMEM + 5% FBS, bFGF-free, cultured for 41 days): ≥ 4.1 times

Compound: insulin
- expression of Oct4 [1, 6]: increased
- expression of Oct4 [1, 9]: significantly decreased
- expression of Oct4 [1, 5]: increased
- expression of Nanog [2, 6]: maintained
- expression of Nanog [2, 9]: significantly decreased
- expression of Nanog ([2]; insulin 10 μm, bFGF-free): significantly decreased
- expression of Nanog [2, 5]: increased
- expression of Pax7, concentration dependence ([3]; bFGF-free medium with 5% FBS): increased in proportion to the concentration of insulin
- expression of Pax7, concentration dependence [3, 7]: increased in proportion to the concentration of insulin
- cell proliferation rate increase compared to basal medium ([4]; 10 μm insulin, DMEM + 5% FBS + 8 ng/ml bFGF, cultured for 29 days): ≥ 6 times
- cell proliferation rate increase compared to basal medium ([4]; 10 μm insulin, DMEM + 5% FBS, bFGF-free, cultured for 41 days): ≥ 13 times
